Molecular target: T1, human leukocyte elastase (HLE) (Homo sapiens, UniProt P08246)
T1 sequence (P08246 30-267): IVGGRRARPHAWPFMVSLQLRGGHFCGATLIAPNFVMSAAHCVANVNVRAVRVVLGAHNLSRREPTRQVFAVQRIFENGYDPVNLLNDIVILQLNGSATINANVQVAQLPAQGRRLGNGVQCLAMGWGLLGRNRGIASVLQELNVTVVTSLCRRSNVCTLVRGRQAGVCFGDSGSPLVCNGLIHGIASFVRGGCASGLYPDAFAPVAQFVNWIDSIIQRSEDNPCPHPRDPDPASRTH
Assay: Inactivation of human leukocyte elastase: kon measured, Ki* = koff/kon calculated
Assay type: biochemical
Conditions: Elastase; Ki* = koff/kon, not a truly reversible inhibition constant
Protocol: Thus, instead of measuring a Ki, a Ki* is calculated which is defined as the ratio of the koff/kon, the rate of reactivation of the enzyme to the rate of inactivation of the enzyme. The values of koff and kon are measured and Ki* is then calculated.
The rate of inactivation, kon, of enzymatic activity was determined for the compounds tested by measuring the enzyme activity of an aliquot of the respective enzyme as a function of time after addition of the test compound. […] The rate of inactivation is then equal to kon =(kobs)/([I]) [formula] where [I] is the concentration of the inhibiting compound.
The reactivation constant, koff, is similarly determined and the inhibition constant, Ki*, is then calculated as Ki * = koff /kon [formula]

How did the Ki turn out when `Cn1cnnc1SCN1C(=O)c2ccccc2S1(=O)=O` [Example 30AC] was run?
Its Ki is 246 nM.

With `CC(C)Oc1cccc2c1C(=O)N(CSc1nnnn1-c1ccccc1)S2(=O)=O` [Example 30AU] as the compound, how does the Ki read?
Its Ki is 17.5 nM.

For `CCOc1cccc2c1C(=O)N(CSc1nnnn1-c1ccccc1)S2(=O)=O` [Example 30AT], which Ki is on record?
Its Ki is 3 nM.

With `O=C1c2ccccc2S(=O)(=O)N1Cn1nnn(-c2ccccc2)c1=O` [Example 30BH] as the compound, how does the Ki read?
The Ki was over 10000 nM.

Which Ki does the source give for `O=C1c2cccc(Cl)c2S(=O)(=O)N1CSc1nnnn1-c1ccccc1` [Example 30AG] here?
The Ki was over 1000 nM.

Same assay, conditions: Elastase; rate of inactivation kon = kobs/[I]; value is kon x 10^-3

Which “10^-3 x kon” value does the source give for `O=C1c2ccccc2S(=O)(=O)N1CSc1nc(-c2ccccc2)ns1` [Example 30AF] here?
The value was 4.2 M^-1 sec^-1.

Which “10^-3 x kon” value does the source give for `CCc1cccc2c1C(=O)N(CCl)S2(=O)=O` [Example 28] here?
Its value is 50.7 M^-1 sec^-1.

Same assay, conditions: Elastase; rate of inactivation kon = kobs/[I]; value is kon x 10^-3; read-out: 10^-3 x kon

For `CCOC(=O)Cn1nnnc1SCN1C(=O)c2ccccc2S1(=O)=O` [Example 30AP], which kinact/KI is on record?
Its kinact/KI is 1300 M⁻¹ s⁻¹.

Which kinact/KI does the source give for `O=C1c2ccccc2S(=O)(=O)N1CSc1nnc(SCCN2CCOCC2)s1` [Example 33, 2-(5-[2-(4-morpholinyl)ethylthio]-1,3,4-thiadiazol-2-ylthiomethyl)saccharin] here?
Its kinact/KI is 3600 M⁻¹ s⁻¹.

How did the kinact/KI turn out when `O=C1c2ccccc2S(=O)(=O)N1Cn1nnn(-c2cccnc2)c1=S` [Example 30R] was run?
The kinact/KI was 2300 M⁻¹ s⁻¹.

For `O=C1c2ccccc2S(=O)(=O)N1CSc1nnnn1CCN1CCOCC1` [Example 30BG], which kinact/KI is on record?
The kinact/KI was 1700 M⁻¹ s⁻¹.

Which kinact/KI does the source give for `O=C1C=Cc2ccc(OCN3C(=O)c4ccccc4S3(=O)=O)c3cccc1c23` [Example 30G] here?
Its kinact/KI is 9300 M⁻¹ s⁻¹.

For `CCC(CC)c1cccc2c1C(=O)N(CCl)S2(=O)=O` [Example 22C, 2-chloromethyl-4-(3-pentyl)saccharin], which kinact/KI is on record?
Its kinact/KI is 105000 M⁻¹ s⁻¹.

For `Cn1cnnc1SCN1C(=O)c2ccccc2S1(=O)=O` [Example 30AC], which kinact/KI is on record?
Its kinact/KI is 190 M⁻¹ s⁻¹.

Which kinact/KI does the source give for `O=C1c2ccccc2S(=O)(=O)N1CSc1nnc(SCCN2CCCCC2)s1` [Example 33C, 2-(5-[2-(1-piperidinyl)ethylthio]-1,3,4-thiadiazol-2-ylthiomethyl) saccharin] here?
Its kinact/KI is 200 M⁻¹ s⁻¹.

How did the kinact/KI turn out when `O=C1c2ccccc2S(=O)(=O)N1CSc1nc2ccc([N+](=O)[O-])cc2o1` [Example 30BE] was run?
The kinact/KI was 7400 M⁻¹ s⁻¹.

With `O=C1c2c(Br)cccc2S(=O)(=O)N1CCl` [Example 21, 2-chloromethyl-4-bromosaccharin] as the compound, how does the kinact/KI read?
Its kinact/KI is 950000 M⁻¹ s⁻¹.

How did the kinact/KI turn out when `COC(=O)c1cc(C(=O)OC)cc(-n2nnnc2SCN2C(=O)c3ccccc3S2(=O)=O)c1` [Example 30E] was run?
Its kinact/KI is 7300 M⁻¹ s⁻¹.

Which kinact/KI does the source give for `COc1ccc2c(c1OC)C(=O)N(CCl)S2(=O)=O` [Example 22F] here?
The kinact/KI was 20000 M⁻¹ s⁻¹.

With `O=C1c2ccccc2S(=O)(=O)N1CSc1nc2ccc([N+](=O)[O-])cc2s1` [Example 30BD] as the compound, how does the kinact/KI read?
The kinact/KI was 11700 M⁻¹ s⁻¹.

How did the kinact/KI turn out when `CCc1cccc2c1C(=O)N(CSc1nnnn1CC(=O)N(C)C)S2(=O)=O` [Example 30AV] was run?
Its kinact/KI is 7600 M⁻¹ s⁻¹.

With `O=C(O)CCC(=O)Nc1cccc(-n2nnnc2SCN2C(=O)c3ccccc3S2(=O)=O)c1` [Example 35, 2-[1-(3-succinoylaminophenyl)-1H-tetrazol-5-ylthiomethyl]saccharin] as the compound, how does the kinact/KI read?
The kinact/KI was 3600 M⁻¹ s⁻¹.

How did the kinact/KI turn out when `COC(=O)C(Sc1nnnn1-c1ccccc1)N1C(=O)c2ccccc2S1(=O)=O` (stereo not shown) [Example 17, methyl 2-(1-phenyl-1H-tetrazol-5-ylthio)2-(2-saccharinyl)acetate] was run?
Its kinact/KI is 2900 M⁻¹ s⁻¹.

Which kinact/KI does the source give for `O=C1c2ccccc2S(=O)(=O)N1CF` [Example 27, 2-fluoromethylsaccharin] here?
The kinact/KI was 7500 M⁻¹ s⁻¹.

How did the kinact/KI turn out when `CC(C)Oc1cccc2c1C(=O)N(CSc1nnnn1-c1ccccc1)S2(=O)=O` [Example 30AU] was run?
The kinact/KI was 8900 M⁻¹ s⁻¹.

How did the kinact/KI turn out when `CC(C)c1cccc2c1C(=O)N(CSc1nnnn1CCN1CCOCC1)S2(=O)=O` [Example 30BI] was run?
Its kinact/KI is 39000 M⁻¹ s⁻¹.

How did the kinact/KI turn out when `O=C1c2ccccc2S(=O)(=O)N1COc1ccc([N+](=O)[O-])cc1` [Example 15, 2-(4-nitrophenoxymethyl)saccharin] was run?
Its kinact/KI is 3200 M⁻¹ s⁻¹.

For `O=C(O)c1ccc(-n2nnnc2SCN2C(=O)c3ccccc3S2(=O)=O)cc1` [Example 30D], which kinact/KI is on record?
The kinact/KI was 800 M⁻¹ s⁻¹.

With `CCOc1cccc2c1C(=O)N(CSc1nnnn1-c1ccccc1)S2(=O)=O` [Example 30AT] as the compound, how does the kinact/KI read?
Its kinact/KI is 45300 M⁻¹ s⁻¹.

`CCc1cccc2c1C(=O)N(CSc1nnnn1CCN1CCOCC1)S2(=O)=O` [Example 30J] was tested. Which kinact/KI did it give?
The kinact/KI was 14000 M⁻¹ s⁻¹.

Same assay, conditions: read-out: 10^-3 x kon

With `O=C1c2cc([N+](=O)[O-])ccc2S(=O)(=O)N1CSc1nnnn1-c1ccccc1` [Example 11, 5-nitro-2-(1-phenyl-1H-tetrazol-5-ylthiomethyl)saccharin] as the compound, how does the kinact/KI read?
The kinact/KI was 4600 M⁻¹ s⁻¹.

Source: EP0471756B1, “SACCHARIN DERIVATIVES USEFUL AS PROTEOLYTIC ENZYME INHIBITORS AND PREPARATION THEREOF” (priority 1989, dated 1990)
